Data on seven molecules can be found in paper PMC12529164, “Design, Synthesis, Structure–Activity Relationships, and Preliminary Anticancer Properties of Menthol-Modified Coumarin Esters and 3,4-Dihydrocoumarin Derivatives” (ACS Omega, 2025).

As a reminder, the IC50 is the concentration that gives 50% inhibition.

Assay [1] relates to MDA-MB-231. Description: MTT cytotoxicity assay. The format is cell-based, human. The settings on record: for IC50: MTT, 72 h, human breast adenocarcinoma; for SI MDA-MB-231: SI = IC50 for normal cell line (HaCaT)/IC50 cancer cell line. On the procedure:
(§1) The human primary (SW480) and metastatic (SW620) colon cancer, metastatic prostate cancer (PC3), breast adenocarcinoma (MDA-MB-231) and human immortal keratinocyte (HaCaT) cell lines were recruited from the American Type Culture Collection (ATCC). The cells were cultured in the recommended medium according to protocols (RPMI 1640 for PC3, MEM for SW480 and SW620, as well as DMEM for MDA-MB-231 and HaCaT cells) with addition of 10% FBS, penicillin (100 U/mL), and streptomycin (100 μg/mL) and cultured in 37 °C/5% CO2 in a humidified incubator. Then, the cells were passaged at a confluence of 80–90% by a treatment with 0.25% trypsin (Gibco Life Technologies) and used for studies.
(§2) They were added to 96-well plates with seeded normal and cancer cells (1 × 10^4 cells per well) and incubated for 72 h. MTT analysis was performed according to a previous study.
(In general: Tetrazolium assays rely on reduction of a dye to a coloured formazan, in cell work by metabolically active cells.)

Assay [2] has as its system SW480. Description: MTT cytotoxicity assay. It counts as cell-based, human. As to conditions: for IC50: MTT, 72 h, human primary colon cancer; for SI SW480: SI = IC50 for normal cell line (HaCaT)/IC50 cancer cell line. The method, then: as §1, §2
The subject of assay [3] is SW620. Description: MTT cytotoxicity assay. It counts as cell-based, human. As to conditions: for IC50: MTT, 72 h, human metastatic colon cancer; for SI SW620: SI = IC50 for normal cell line (HaCaT)/IC50 cancer cell line. The method, then: as §1, §2
Assay [4] has as its system PC3. Description: MTT cytotoxicity assay. It counts as cell-based, human. As to conditions: for IC50: MTT, 72 h, human metastatic prostate cancer; for SI PC3: SI = IC50 for normal cell line (HaCaT)/IC50 cancer cell line. The method, then:
as §1, §2

Assay [5] deals with HaCaT. Description: MTT cytotoxicity assay, normal cells. The format is cell-based. As to conditions: 72 h, human immortal keratinocytes (normal cells). On the procedure:
as §1, §2

Assay [6] has as its system tested cancer cell lines (SW480, SW620, PC3, MDA-MB-231). Description: MTT assay, mean over tested cancer cell lines. The format is cell-based. The settings on record: Homo sapiens, mean of the four cancer cell lines. On the procedure: They were added to 96-well plates with seeded normal and cancer cells (1 × 10^4 cells per well) and incubated for 72 h. MTT analysis was performed according to a previous study. […]

Where [7] appears, read: Table S7, >100 entered as 100, read-out: mean anticancer IC50.
Where [8] appears, read: read-out: average IC50 against tested cancer cell lines.

Molecules are shown by their SMILES. Where two headings read alike, the source gives them in different places.

For the molecule `N.N.[Cl][Pt][Cl]` [Cisplatin, reference compound], the results for the IC50 in assay [1], in assay [2] and in assay [3] were 7.3 ± 0.8 µM, 10.4 ± 0.9 µM and 6.7 ± 1.1 µM, respectively.
As to `CC(C)[C@H]1CC[C@H](C)C[C@@H]1OC(=O)c1cc2ccccc2oc1=O` [Compound 1b, (1S,2R,5S)-2-Isopropyl-5-methylcyclohexyl 2-oxo-2H-chromene-3-carboxylate], the IC50 was above 100 µM in assay [1] (MDA-MB-231); above 100 µM in assay [4] (PC-3); above 100 µM in assay [2] (SW480); above 100 µM in assay [3] (SW-620); 41.1 ± 2.8 µM in assay [5] (HaCaT); above 100 µM in assay [6] (setting [7]). For the same molecule, the “SI MDA-MB-231” value in assay [1] is listed as 0.41. Moreover, the “SI PC3” value in assay [4] was found to be 0.41. Moreover, in assay [2], the “SI SW480” value was found to be 0.41. The “SI SW620” value in assay [3] was determined as 0.41.
Consider `COc1ccc2cc(C(=O)O[C@@H]3C[C@H](C)CC[C@H]3C(C)C)c(=O)oc2c1` [Compound 1c, (1R,2S,5R)-2-Isopropyl-5-methylcyclohexyl 7-methoxy-2-oxo-2H-chromene-3-carboxylate], for which the IC50 in assay [1] (MDA-MB-231) is above 100 µM; in assay [4] (PC-3), above 100 µM; in assay [2] (SW480), above 100 µM; in assay [3] (SW-620), above 100 µM; in assay [5] (HaCaT), 15.3 ± 4.41 µM; in assay [6] (setting [7]) it was above 100 µM. In assay [1], the “SI MDA-MB-231” value is reported as 0.15. Also, the “SI PC3” value in assay [4] was found to be 0.15. For the same molecule, the “SI SW480” value in assay [2] amounted to 0.15. Also, the “SI SW620” value in assay [3] was 0.15.
As to `COc1cccc2cc(C(=O)O[C@@H]3C[C@H](C)CC[C@H]3C(C)C)c(=O)oc12` [Compound 1d, (1R,2S,5R)-2-Isopropyl-5-methylcyclohexyl 8-Methoxy-2-oxo-2H-chromene-3-carboxylate], the IC50 in assay [1] (MDA-MB-231) was 36.6 ± 7.74 µM; in assay [4] (PC-3) it was 29.3 ± 2.05 µM; in assay [2] (SW480) it was 25.4 ± 6.12 µM; in assay [3] (SW-620) it was above 100 µM; in assay [5] (HaCaT) it was above 100 µM; in assay [6] (setting [7]), above 47.8 µM. Also, the IC50 in assay [6] (setting [8]) is above 47.8 µM. The “SI MDA-MB-231” value in assay [1] came out at 2.73. In addition, in assay [4], the “SI PC3” value was determined as 3.41. Further, the “SI SW480” value in assay [2] amounted to 3.93. Also, the “SI SW620” value in assay [3] is 1.
With `CC(C)[C@@H]1CC[C@@H](C)C[C@H]1OC(=O)c1cc2ccc(O)cc2oc1=O` [Compound 1e, (1R,2S,5R)-2-Isopropyl-5-methylcyclohexyl 7-hydroxy-2-oxo-2H-chromene-3-carboxylate], the IC50 turned out to be 86.7 ± 2.24 µM in assay [1] (MDA-MB-231); 21.8 ± 4.21 µM in assay [4] (PC-3); 27.7 ± 2.42 µM in assay [2] (SW480); 38.7 ± 0.01 µM in assay [3] (SW-620); 78.8 ± 7.12 µM in assay [5] (HaCaT); 43.7 µM in assay [6] (setting [7]). The IC50 in assay [6] (setting [8]) amounted to 43.7 µM. Besides, the “SI MDA-MB-231” value in assay [1] turned out to be 0.91. Moreover, the “SI PC3” value in assay [4] came out at 3.61. The “SI SW480” value in assay [2] worked out at 2.84. Moreover, the “SI SW620” value in assay [3] is 2.03.
As to `CCOP(=O)(OCC)c1cc2ccccc2oc1=O` [Compound 2a, Diethyl (2-Oxo-2H-chromen-3-yl)phosphonate], in assay [1], the IC50 was above 100 µM and the “SI MDA-MB-231” value is on record as 1. Further, in assay [4], the IC50 is above 100 µM and the “SI PC3” value came to 1. Besides, in assay [2], the IC50 was above 100 µM and the “SI SW480” value is recorded as 1. Besides, in assay [3], the IC50 is above 100 µM and the “SI SW620” value is on record as 1. The molecule further gave an IC50 in assay [5] above 100 µM.
On to `COc1cccc2c1C(=O)c1c(O)c3c(c(O)c1C2=O)C[C@@](O)(C(=O)CO)C[C@@H]3O[C@H]1C[C@H](N)[C@H](O)[C@H](C)O1` [Doxorubicin, reference compound], for which the IC50 in assay [1] (MDA-MB-231) came out at 1.6 ± 0.2 µM; in assay [4] (PC-3) it was 0.3 ± 0.1 µM; in assay [2] (SW480), 0.7 ± 0.1 µM; in assay [3] (SW-620), 0.3 ± 0.1 µM; in assay [5] (HaCaT), 0.3 ± 0.1 µM. For the same molecule, the “SI PC3” value in assay [4] was 1.0. Besides, in assay [2], the “SI SW480” value was 0.4. Besides, the “SI SW620” value in assay [3] stood at 1.0.
